This assay concerns the target Free fatty acid receptor 1 (Homo sapiens, UniProt O14842). Kind of assay: Agonist activity at human GPR40 expressed in human 1321N1 cells assessed as IP1 accumulation after 1 hr by HTRF assay. The assay is classed as functional, cell-based. On the technique in general: In TR-FRET formats the signal depends on donor and acceptor labels being close together.

Chain of Free fatty acid receptor 1 (O14842 whole entry): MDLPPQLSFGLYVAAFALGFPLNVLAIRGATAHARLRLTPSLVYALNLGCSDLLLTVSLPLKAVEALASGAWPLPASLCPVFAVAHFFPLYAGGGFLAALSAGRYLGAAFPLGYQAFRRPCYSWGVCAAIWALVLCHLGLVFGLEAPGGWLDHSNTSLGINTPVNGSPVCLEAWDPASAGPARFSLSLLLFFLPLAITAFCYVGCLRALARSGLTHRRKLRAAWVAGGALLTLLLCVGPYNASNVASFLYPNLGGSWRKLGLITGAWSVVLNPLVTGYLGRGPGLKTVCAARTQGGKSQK

By EC50 is commonly meant the concentration at which the effect is half-maximal. With `Cc1cc(-c2cccc(=O)n2C)cc(C)c1-c1ccc(F)c2c1CC[C@H]2Nc1ccc([C@H]2C[C@@H]2C(=O)O)nc1`, the EC50 is 4 nM. Under `Cc1cc(OCC2CCOC2)cc(C)c1-c1ccc(F)c2c1CC[C@H]2Nc1ccc([C@H]2C[C@@H]2C(=O)O)nc1` (stereo not given in full) stands 7 nM; under `CNC(=O)c1cc(C)c(-c2ccc(F)c3c2CC[C@H]3Nc2ccc([C@H]3C[C@@H]3C(=O)O)nc2)c(C)c1`, 148 nM; under `Cc1cc(-c2nnn(CC(C)(C)O)n2)cc(C)c1-c1ccc(F)c2c1CC[C@H]2Nc1ccc([C@H]2C[C@@H]2C(=O)O)nc1`, 2 nM. Under `Cc1cc(OCCC(C)(C)O)cc(C)c1-c1ccc(F)c2c1CC[C@H]2Nc1ccc([C@H]2C[C@@H]2C(=O)O)nc1` stands 11 nM.

Source of the values: ChEMBL document CHEMBL4196229, “GPR40 Receptor Agonists for the Treatment of Type 2 Diabetes and Related Diseases” (ACS Med Chem Lett, 2018).
